Data taken from patent US5278045A, “Method and compositions to screen compounds for enhancement of the cholinergic, dopaminergic and serotonergic function” (Du Pont Merck Pharmaceutical Company, priority 1990, dated 1994).
Where no end group is shown, it is not given here.

System: DuP 996 binding protein
Assay: Specificity of the DuP 996 binding protein (displacement of tritiated DuP 996 by pharmacological standards)
Design: species or system rat
Details: not given

Compound	ability to displace tritiated DuP 996 binding from the binding protein
CN1[C@@H]2CC[C@H]1C[C@@H](OC(=O)C(CO)c1ccccc1)C2 (stereo partly drawn) [atropine]	None of these pharmacological standards was able to displace
COc1ccc(CCN(C)CCCC(C#N)(c2ccc(OC)c(OC)c2)C(C)C)cc1OC (stereo not drawn) [verapamil]	None of these pharmacological standards was able to displace
CN1C(=O)CN=C(c2ccccc2)c2cc(Cl)ccc21 [diazepam]	None of these pharmacological standards was able to displace
CN1CCCC1c1cccnc1 (stereo not drawn) [nicotine]	None of these pharmacological standards was able to displace

Same assay, conditions: receptor and ion channel ligands and neuropeptides against 10 nM tritiated DuP 996

Compound	ability to displace tritiated DuP 996 binding from the binding protein
COC(=O)[C@@H]1[C@H]2C[C@H]3c4[nH]c5ccccc5c4CCN3C[C@@H]2CC[C@@H]1O [yohimbine]	None of these pharmacological standards was able to displace
Cn1c(=O)c2c(ncn2C)n(C)c1=O [caffeine]	None of these pharmacological standards was able to displace
O=C1C[C@@H]2OCC=C3CN4CC[C@]56c7ccccc7N1[C@H]5[C@H]2[C@H]3C[C@H]46 [strychnine]	None of these pharmacological standards was able to displace
NC(=O)CN1CCCC1=O [piracetam]	None of these pharmacological standards was able to displace
C1CCc2nnnn2CC1 [pentylenetetrazol]	None of these pharmacological standards was able to displace
COc1ccc(CN(CCN(C)C)c2ccccn2)cc1 [pyrilamine]	None of these pharmacological standards was able to displace
CN(C)CCC=C1c2ccccc2CCc2ccccc21 [amitriptyline]	None of these pharmacological standards was able to displace
CC(C)NCC(O)c1ccc(O)c(O)c1 (stereo not drawn) [isoproterenol]	None of these pharmacological standards was able to displace
c1ccc(C2(N3CCCCC3)CCCCC2)cc1 [phencyclidine]	None of these pharmacological standards was able to displace
NCCCC(=O)O [GABA]	None of these pharmacological standards was able to displace
RPPGFSPFR [bradykinin]	None of these pharmacological standards was able to displace
ACTH 1-24: pharmacological standard	None of these pharmacological standards was able to displace
CC(N)Cc1ccccc1 (stereo not drawn) [amphetamine]	None of these pharmacological standards was able to displace
angiotensin III	None of these pharmacological standards was able to displace
CN/C(=N/CCSCc1nc[nH]c1C)NC#N [cimetidine]	None of these pharmacological standards was able to displace
CN1CCN2c3ccccc3Cc3ccccc3C2C1 (stereo not drawn) [mianserin]	None of these pharmacological standards was able to displace
LHRH: pharmacological standard	None of these pharmacological standards was able to displace
cholecystokinin	None of these pharmacological standards was able to displace
neurotensin 8-13	None of these pharmacological standards was able to displace
C=CCN1CCC2(C)c3cc(O)ccc3CC1C2C (single isomer, unassigned; (+)) [(+)-SKF 10,047]	None of these pharmacological standards was able to displace
O=C(CCCN1CCC(O)(c2ccc(Cl)cc2)CC1)c1ccc(F)cc1 [haloperidol]	None of these pharmacological standards was able to displace
neurokinin A	None of these pharmacological standards was able to displace
veratidine	None of these pharmacological standards was able to displace
CN[C@H](CC(=O)O)C(=O)O [N-methyl-D-aspartic acid]	None of these pharmacological standards was able to displace
neurokinin B	None of these pharmacological standards was able to displace
substance P	None of these pharmacological standards was able to displace
C=CCN1CC[C@]23c4c5ccc(O)c4O[C@H]2C(=O)CC[C@@]3(O)[C@H]1C5 [naloxone]	None of these pharmacological standards was able to displace
Nc1ncnc2c1ncn2[C@@H]1O[C@H](CO)[C@@H](O)[C@H]1O [adenosine]	None of these pharmacological standards was able to displace
NC[C@H](O)c1ccc(O)c(O)c1 [norepinephrine]	None of these pharmacological standards was able to displace
3,4-aminopyridine	None of these pharmacological standards was able to displace

Molecular target: DuP 996 binding protein
Assay: Radioreceptor screening assay (displacement of tritiated DuP 996)
Design: species or system rat
Details: inhibition of binding of 10 nM tritiated DuP 996, pH 7.4, 25° C., 60 minutes
Description: Male Sprague-Dawley rats (Charles River Breeding Laboratories) at 200-250 g were euthanatized by decapitation. Rat brain regions were dissected according to Heffner et al., Pharmacol. Biochem. Behav., 13, 453 (1980). Brain membranes were prepared by the method of Tam, Proc. Natl. Acad. Sci. USA, 80, 6703 (1983). The brain tissues were homogenized (20 sec) in 10 vol (wt/vol) of ice-cold 0.32M sucrose with a Brinkman Polytron (setting 8). The homogenate was centrifuged at 920×g for 10 min at 4° C. The supernatant was centrifuged at 47,000×g for 20 min. The resulting membrane pellet was resuspended in 10 vol (original wt/vol) of 50 mM Tris-HCl (pH 7.4) and incubated at 37° C. for 30 min to degrade and dissociate bound endogenous ligands. The membranes were then centrifuged at 47,000×g for 20 min and resuspended in 50 mM Tris-HCl.
Compounds to be screened were incubated with brain membranes. (1-2 mg protein) in 50 mM Tris-HCl buffer, pH 7.4, for 10 minutes in 25° C. Then 10 nM tritiated DuP 996 or its active structural analogs were added and incubated at 25° C. for 60 minutes. The samples were filtered on Whatman GF/B glass filters which had been soaked in 0.2% polyethylenimine and washed 3 times each with 5 ml of ice-cold Tris buffer. Nonspecific binding was determined by performing binding in the presence of 10 μM DuP 996. The control represents specific binding in the absence of compounds to be screened. Screened compounds which inhibited the specific binding of tritiated DuP 996 or analogs to its binding protein should be active in binding to the same protein. This is illustrated further in Example 4, Part B.

Compound	IC50
COc1ccc(C(C#N)(Cc2ccncc2)Cc2ccncc2)cc1 [Compound 10, α-(4-Methoxyphenyl)-α-(4-pyridinylmethyl)-4-pyridinepropane nitrile]	119 nM
Cc1ccc2c(c1)C(Cc1ccncc1)(Cc1ccncc1)c1ccccc1-2 [Compound 8, 4-[2-Methyl-9-(4-pyridinyl-methyl)-9H-fluoren-9-ylmethyl]pyridine]	62 nM

System: ACh release
Assay: Neurotransmitter release assay: stimulated ACh release from brain slices
Design: species or system rat
Details: concentration to enhance stimulated release of ACh by 100% (2-fold) over control, from dose response curves
Description: Male Wistar rats weighing 175-200 g were euthanatized and the brains were dissected out immediately. Slices (0.3 mm thick) from the parietal cortex were prepared manually by using a recessed Lucite® guide. Slices (1.5 mm thick) from the hippocampus and the caudate nucleus were prepared by using a slotted brain holder. All slices were subsequently cut into 0.25×0.25 mm squares with a McIlwain tissue chopper.
Labeling of transmitter stores in slices was prepared by the following methods. For ACh release, slices (approximately 100 mg wet weight) were incubated in 10 ml Krebs-Ringer (KR) medium containing (mM): NaCl(116), KCl(3), CaCl2 (1.3), MgCl2 (1.2), KH2 PO4 (1.2), Na2 SO4 (1.2), NaHCO3 (25) and glucose(11), to which 10 μCi ^3 H-choline (specific activity approx. 80 Ci/mmol: NEN) and 10 nmol unlabeled choline had been added to give a final concentration of 10^-6 M. Incubation was carried out for 30 min at 37° C. under a steady flow of 95% O2 /5% CO2. Under these conditions, part of the radioactive choline taken up is converted into radioactive ACh by cholinergic nerve endings, stored in synaptic vesicles, and released upon depolarization by high-K^+ -containing medium [Molenaar et al., 1973a]. For dopamine (DA), serotonin (5-HT), and norepinephrine (NE) release, slices (approximately 100 mg wet weight) were incubated in KR medium containing 0.01 mM nialamide at 37° C. under a steady flow of 95% O2 /5% CO2. The MAO-inhibitor nialamide was added to the medium in order to inhibit metabolism to the monoamines. Incubation was for 30 min in 10 ml of KR medium to which 10 μCi ^3 H-dopamine, ^3 H-norepinephrine, or ^3 H-5-hydroxytryptamine (specific activity 30, 45, and 78 Ci/mmol, respectively: all from NEN) had been added.
Separate experiments were performed for the release of each neurotransmitter. After labeling of the transmitter stores, the slices were washed three times with non-radioactive KR medium and transferred to a superfusion apparatus to measure the drug effects on transmitter release [Schoemaker et al., Psychopharmacology 74, 137 (1981)]. The superfusion apparatus consisted of 10 thermo-jacketed glass columns of 5 mm diameter which were provided with GF/F glass fiber filters to support the brain slices (approximately 10 mg tissue/column). Superfusion was carried out with KR medium at a rate of 0.3 ml/min. For ACh release, 10^-5 M hemicholinium-3 was added to the medium to prevent the uptake of choline formed during superfusion from phospholipids and released ACh, so that it could not be subsequently converted into newly synthesized ACh, which would be released in preference to the pre-formed, labeled ACh. The medium was delivered by a 25-channel peristaltic pump (Ismatec; Brinkman) and maintained at 37° C. by a thermostated stainless-steel heating coil before entering the superfusion column. Each column was provided with a four-way slider valve (Beckman Instruments) which allowed rapid change of low-to-high-K^+ -KR-medium and with two 10-channel, 3-way valves which were used to change form drug-free to drug-containing low- and high-K^+ -KR media.
After 15 min washout of non-specifically bound radioactivity during superfusion, the collection of fractions of 4 min (1.2 ml) each was started. After 3×4 min, the KR medium was changed to a KR medium with 25 mM KCl (ACh, 5-HT release) or 12.5 mM KCl (DA release) (high K^+ -KR medium; S1). Depolarization-induced stimulation of release by high-K^+ -KR medium was then substituted by drug- or vehicle-containing low- and high-K^+ -KR medium and superfusion continued for 3×4 min with low-K^+ -KR medium, for 1×4 min with high-K^+ -KR medium (S2), and for 2×4 min with low-K^+ -KR medium.
Compounds were added to the medium by 100-fold dilution of appropriate stock solutions (in 0.9% NaCl/H2 O) with either low- or high-K^+ -KR medium.
All superfusion fractions were collected in liquid scintillation counting vials.

Compound	ACh Release EC100
COc1ccc(C(C#N)(Cc2ccncc2)Cc2ccncc2)cc1 [Compound 10, α-(4-Methoxyphenyl)-α-(4-pyridinylmethyl)-4-pyridinepropane nitrile]	1,600 nM
Cc1ccc2c(c1)C(Cc1ccncc1)(Cc1ccncc1)c1ccccc1-2 [Compound 8, 4-[2-Methyl-9-(4-pyridinyl-methyl)-9H-fluoren-9-ylmethyl]pyridine]	170 nM
3,3-Bis(3-pyridinylmethyl)-1-phenyl-1H-indol-2(3H)one N-oxide [Compound 23]	100,000 nM
